Values joined by “and” are separate entries in the source; they are usually repeats but may differ in a detail not shown here. Identical values can stand only once. Marks after values point to notes of the source that are not given here.
Assay: Safety and tolerability: adverse events per CTCAE v3, dose-limiting toxicity, phase 1 study
Assay type: in vivo, human (Japanese patients with solid tumors)
Procedure: A standard 3 + 3 design determined the dose level assignment. Patients were assigned to one of four sequential dose cohorts of once-a-day dose regimen of oral linifanib: 0.05, 0.10, 0.20, or 0.25 mg/kg, administered in the morning. […] Dose-limiting toxicity (DLT) was defined as Grade 4 neutropenia lasting >7 days, Grade 4 thrombocytopenia or decreased hemoglobin, Grade 3 or greater thrombocytopenia (if blood transfusion was required), febrile neutropenia, non-hematological toxicity except for manageable nausea, vomiting, anorexia, diarrhea, constipation or electrolyte abnormality, or a toxicity that required suspension of study drug for >7 days.
Patients self-administered linifanib once daily, on a 21-day cycle after fasting, and treatment continued until disease progression or intolerable toxicity. […] The initial oral dose, 2.5–25.0 mg in increments of 2.5 mg, was determined by the patients’ weights. […] The dose was reduced by 5.0 mg for patients ≥86 kg in the 0.10 mg/kg cohort, for patients in the 0.20 mg/kg cohort who were ≥81 kg at the first reduction and 61–80 and ≥96 kg at the 2nd reduction, and for patients in the 0.25 mg/kg cohort who were ≥66 kg at the first reduction and ≥86 kg at the second reduction. Patients were discontinued if they required dose reduction, specified by cohort: Any reduction (0.05 mg/kg cohort); >1 reduction (0.10 mg/kg cohort, and patients ≤31 kg in the 0.20 mg/kg cohort with an initial 5 mg dose); >2 reductions (0.25 mg/kg cohort, and patients ≥32 kg in the 0.20 mg/kg cohort with an initial ≥7.5 mg dose).
Baseline evaluations included physical examination, body weight, vital signs, 12-lead electrocardiogram, ECOG PS assessment, pregnancy test, laboratory tests, and multiple-gated acquisition scan/echocardiogram. Tumor response and/or disease progression was assessed by computerized tomography (CT) scan or magnetic resonance imaging (MRI) per RECIST [20] at screening and on Day (D) 1 of every second cycle prior to the subsequent treatment period, until tumor progression or until final visit. Complete response and partial response (PR) were defined according to RECIST [20]; objective response rate (ORR) was defined as the proportion of patients with best response of PR or CR among the study population. Safety assessments included laboratory test results and adverse events (AEs), which were graded according to CTCAE v3 [18] and coded by medical dictionary of regulatory activities (MedDRA) 1.0.

Structure (SMILES): Cc1ccc(F)c(NC(=O)Nc2ccc(-c3cccc4[nH]nc(N)c34)cc2)c1 [linifanib, N-(4-(3-amino-1H-indazol-4-yl)phenyl)-N’-(2-fluoro-5-methylphenyl)urea]
- Neutropenia, linifanib-related AE, patients (0.20 mg/kg n = 3, G2): 2
- Palmar-plantar erythrodysaesthesia, linifanib-related AE, patients (0.20 mg/kg n = 3, G2): 3
- Thrombocytopenia, linifanib-related AE, patients (0.20 mg/kg n = 3, G2): 2
- Weight decreased, linifanib-related AE, patients (0.20 mg/kg n = 3, G2): 2
- Diarrhea, linifanib-related AE, patients (0.20 mg/kg n = 3, G3): 1
- Hypertension, linifanib-related AE, patients (0.20 mg/kg n = 3, G3): 1
- Proteinuria, linifanib-related AE, patients (0.20 mg/kg n = 3, G3): 1
- dose-limiting toxicity observed (0.25 mg/kg cohort, one patient, dose interruption >7 days, discontinuation on D29): Grade 1 T-wave inversion
- Grade 3 linifanib-related AEs (0.25 mg/kg dose): four
- ALT increased, linifanib-related AE, patients (0.25 mg/kg n = 6, G1): 3
- AST increased, linifanib-related AE, patients (0.25 mg/kg n = 6, G1): 6
- Blood ALKP increased, linifanib-related AE, patients (0.25 mg/kg n = 6, G1): 4
- Blood TG increased, linifanib-related AE, patients (0.25 mg/kg n = 6, G1): 2
- Blood TSH increased, linifanib-related AE, patients (0.25 mg/kg n = 6, G1): 1
- Blood cholesterol increased, linifanib-related AE, patients (0.25 mg/kg n = 6, G1): 2
- Blood urine present, linifanib-related AE, patients (0.25 mg/kg n = 6, G1): 4
- Fatigue, linifanib-related AE, patients (0.25 mg/kg n = 6, G1): 4
- GGT increased, linifanib-related AE, patients (0.25 mg/kg n = 6, G1): 3
- Leukopenia, linifanib-related AE, patients (0.25 mg/kg n = 6, G1): 3
- Neutropenia, linifanib-related AE, patients (0.25 mg/kg n = 6, G1): 2
- Proteinuria, linifanib-related AE, patients (0.25 mg/kg n = 6, G1): 1
- Rash, linifanib-related AE, patients (0.25 mg/kg n = 6, G1): 6
- Thrombocytopenia, linifanib-related AE, patients (0.25 mg/kg n = 6, G1): 2
- Weight decreased, linifanib-related AE, patients (0.25 mg/kg n = 6, G1): 1
- T-wave abnormality, linifanib-related AE, patients (0.25 mg/kg n = 6, G1, dose-limiting toxicity): 1^a
- Anorexia, linifanib-related AE, patients (0.25 mg/kg n = 6, G2): 2
- Blood TG increased, linifanib-related AE, patients (0.25 mg/kg n = 6, G2): 1
- Blood TSH increased, linifanib-related AE, patients (0.25 mg/kg n = 6, G2): 1
- Diarrhea, linifanib-related AE, patients (0.25 mg/kg n = 6, G2): 2
- Fatigue, linifanib-related AE, patients (0.25 mg/kg n = 6, G2): 1
- Hypertension, linifanib-related AE, patients (0.25 mg/kg n = 6, G2): 6
- Leukopenia, linifanib-related AE, patients (0.25 mg/kg n = 6, G2): 2
- Neutropenia, linifanib-related AE, patients (0.25 mg/kg n = 6, G2): 2
- Palmar-plantar erythrodysaesthesia, linifanib-related AE, patients (0.25 mg/kg n = 6, G2): 3
- Proteinuria, linifanib-related AE, patients (0.25 mg/kg n = 6, G2): 2
- Thrombocytopenia, linifanib-related AE, patients (0.25 mg/kg n = 6, G2): 2
- Weight decreased, linifanib-related AE, patients (0.25 mg/kg n = 6, G2): 1
- ALT increased, linifanib-related AE, patients (0.25 mg/kg n = 6, G3): 1
- Neutropenia, linifanib-related AE, patients (0.25 mg/kg n = 6, G3): 1
- Proteinuria, linifanib-related AE, patients (0.25 mg/kg n = 6, G3): 2
- dose reductions or interruptions for hypertension, neutropenia, or leucopenia (18 patients): no dose reductions or interruptions
- ALT increased, linifanib-related AE, patients (All patients N = 18, any grade): 10 (56) n (%)
- AST increased, linifanib-related AE, patients (All patients N = 18, any grade): 13 (72) n (%)
- Anorexia, linifanib-related AE, patients (All patients N = 18, any grade): 7 (39) n (%)
- Blood ALKP increased, linifanib-related AE, patients (All patients N = 18, any grade): 8 (44) n (%)
- Blood TG increased, linifanib-related AE, patients (All patients N = 18, any grade): 11 (61) n (%)
- Blood TSH increased, linifanib-related AE, patients (All patients N = 18, any grade): 8 (44) n (%)
- Blood cholesterol increased, linifanib-related AE, patients (All patients N = 18, any grade): 10 (56) n (%)
- Blood urine present, linifanib-related AE, patients (All patients N = 18, any grade): 9 (50) n (%)
- Diarrhea, linifanib-related AE, patients (All patients N = 18, any grade): 8 (44) n (%)
- Fatigue, linifanib-related AE, patients (All patients N = 18, any grade): 9 (50) n (%)
- GGT increased, linifanib-related AE, patients (All patients N = 18, any grade): 8 (44) n (%)
- Hypertension, linifanib-related AE, patients (All patients N = 18, any grade): 17 n (%) and 17 (94) n (%)
- Leukopenia, linifanib-related AE, patients (All patients N = 18, any grade): 10 (56) n (%)
- Neutropenia, linifanib-related AE, patients (All patients N = 18, any grade): 11 (61) n (%)
- Palmar-plantar erythrodysaesthesia, linifanib-related AE, patients (All patients N = 18, any grade): 9 (50) n (%)
- Proteinuria, linifanib-related AE, patients (All patients N = 18, any grade): 10 (56) n (%)
- Rash, linifanib-related AE, patients (All patients N = 18, any grade): 11 (61) n (%)
- T-wave abnormality, linifanib-related AE, patients (All patients N = 18, any grade): 2 (11) n (%)
- Thrombocytopenia, linifanib-related AE, patients (All patients N = 18, any grade): 8 (44) n (%)
- Weight decreased, linifanib-related AE, patients (All patients N = 18, any grade): 10 (56) n (%)
- tolerability (Japanese patients with solid tumors, dose range 0.05–0.25 mg/kg): well tolerated
- number of DLTs reported (all cohorts, 18 patients): Two
- Grade 4 or 5 AEs (all doses, 18 patients): no Grade 4 or 5 AEs
- patients who discontinued due to AEs (of 16 who discontinued): two
